Measurements as given in US10806798B2, “Compound with effects of thrombolysis, free radical scavenging and thrombus-targeting” (Shanghai Lumosa Therapeutics Co., Ltd., priority 2012, dated 2020).
Marks after values point to notes of the source that are not given here.

Assays:
[1] = test system: rats with stroke; assay: Cerebral infarction volume after immediate treatment of stroke (TTC staining); format: in vivo, SD rats; conditions: 1 μmol/kg; immediate treatment; n = 10
Procedure: After the rats were awake for 24 h and assessed for their degree of damage in neural function in Experimental example 6, they were anesthesized with urethane followed by immediate decapitation and removal of the brain. Brain tissues were kept in a −20° C. refrigerator for 2 h, and coronal sections of about 2 mm were successively sliced from the prefrontal end for a total of 6 sections, and then placed into a 2% TTC solution to incubate in darkness at 37° C. for 30 min. The color change in brain sections was observed: normal brain tissues were stained red by TTC, while ischemic brain tissues, i.e., brain tissues with infracts, appeared in a white color. Photographs were taken by using a digital camera and processed with SPSS statistics software, and the volume of infarction in brain tissues and the volume of normal brain tissues in the coronal sections were calculated.

[2] = test system: rats with stroke; assay: Immediate treatment after stroke onset, neural function scores (Zealonga method, 0 no loss to 5 death); format: in vivo, SD rats; conditions: 1 μmol/kg, 24 h after awake
Procedure: The in vivo anti-stroke activity of the present invention was represented by neural function scores, with a lower score indicating higher activity. A 10% chloral hydrate solution (400 mg/kg) was injected intraperitoneally into SD male rats (250-300 g) for anesthesia. An open incision of 2 cm in length was longitudinally made slightly on the right to the center of the neck, and the right common carotid artery trunk, carotid external artery and carotid internal artery were dissected along the margin of the inner side of sternocleidomastoid muscles. The open incisions in the carotid internal artery and the proximal end of the common carotid artery were occluded respectively with noninvasive arterial clips. A small open incision was made across the carotid external artery, and the distal end of the carotid external artery was ligated. The arterial clip at the proximal end of the carotid external artery was released, and 10 μl blood was drawn before the proximal end of the common carotid artery was again occluded with the noninvasive arterial clip. The 10 μl blood drawn was placed in a 1 mL EP vial and kept at RT for 30 min for coagulation of blood, and then transferred into a −20° C. refrigerator for 1 h to allow coagulation. After 1 h, the blood clots were taken out, into which 1 mL saline was added, and then broken into uniform microthrombus by using a steel spatula. The microthrombus suspension was then transferred to a 1 mL injector until use. At the same time when the clip on the carotid internal artery of the rat was released, 1 mL thrombus suspension in the injector was slowly injected from the carotid external artery of the rat to its proximal end, and the suspension was injected into the brain of the rat through the carotid internal artery. Subsequently, the proximal end of the carotid external artery was ligated, the arterial clips on the carotid internal artery and the common carotid artery were released, and blood flow was restored. The jugular common vein of the rats was dissected. The vein was immediately ligated, 3 drops of penicillin was dropped at the wound site, the wound was stitched up, and the animals were allowed to come around, as the sham operation group. Or injection of urokinase in normal saline (positive control group, at a dosage of 20000 IU/kg), normal saline (blank control group, at a dosage of 3 ml/kg), TMMZ in normal saline (component control group, at a dosage of 1 μmol/kg), a thrombolytic peptide ARPAK (SEQ. ID NO. 4), GRPAK (SEQ. ID NO. 5), RPAK (SEQ. ID NO. 3) or PAK in normal saline (component control group, at a dosage of 1 μmol/kg), or one of compounds Ia-Il in normal saline (at a dosage of 0.1 μmol/kg) was carried out. 24 h after the rats were awake, the degree of damage in the neural function was evaluated by the Zealonga method. A score of 0 indicated no sign of loss in neural function, 1 indicated the front limbs on the undamaged side could not stretch out, 2 indicated walking toward the undamaged side, 3 indicated tail-chasing walking in circles toward the undamaged side, 4 indicated involuntary walking with disturbance of consciousness, and 5 indicated death.

[3] = test system: NO free radicals (acetylcholine induced vasodilation); assay: NO radical scavenging: inhibition of acetylcholine induced vasodilation of aorta rings; parameters: species or system Wistar rats; conditions: final concentration 5×10^−6 M; n = 6
Procedure: Male Wistar rats weighing 250 to 300 g were starved for 12 h before operation with free access to drinking water, and sacrificed by cervical dislocation. Thoracotomy was immediately carried out and thoracic aorta was taken out, connective tissues attached thereto were dissected, and vessels were cut into aorta rings with a length of 3 to 5 mm and placed into a perfusion bath. The bath contained 15 ml Krebs-Henseleit solution and was kept at a constant temperature of 37° C., into which 95% O2-5% CO2 gas was charged. The anchor to which the aorta rings were immobilized was connected to a tension transducer, and vasomotion curves were recorded on a dual-trace recorder at a paper speed of 1 mm/min. With the static tension adjusted to 1.0 g and 30 min of equilibration, norepinephrine at a final concentration of 10^−8 M was dosed to allow the aorta to contract for preexcitation. Norepinephrine was washed off, followed by 30 min of equilibration, and norepinephrine was added into the bath to a final concentration of 10^−8 M. When the contraction tension was steady at a plateau level, 20 μl normal saline (blank), a 20 μl solution of any one of compounds Ia to Il in normal saline (at a final concentration of 5×10^−6 M), or a 20 μl solution of NO free radical scavenger (1,3-dioxo-2-(4′-oxyacetoxyl-phenyl)-4,4,5,5-tetramethylimidazoline, TMMZ) in normal saline (at a final concentration of 5×10^−6 M) was added into the bath. When stabilized, a 20 μl acetylcholine in normal saline was added (at a final concentration of 10^−6 M). The NO scavenging ability of the drugs was expressed as a percentage of inhibition of acetylcholine induced vasodilation.

[4] = test system: thrombus; assay: In vivo anti-thrombus experiment (arteriovenous cannula with thread); parameters: species or system SD rats; conditions: n = 11
Procedure: SD rats (male, 220 to 230 g) were randomly divided into groups with 11 rats in each group. The rats were fed at a resting state for 1 day and fasted overnight. […] After 30 min, the rats were anesthetized with a 20% urethane solution, and the right carotid artery and the left carotid vein were dissected. A cannula was filled with sodium heparin in normal saline, and one end thereof was inserted into the left vein, while the other end was injected with a certain amount of sodium heparin for anticoagulation with an injector and then inserted into the right artery. Blood flew from the right artery to the left vein through the polyethylene tubing, and the thread attached with thrombus was taken out after 15 min and the weight thereof was recorded. The wet thrombus weight was determined by subtracting the thread weight from the total weight.

[5] = test system: thrombus; assay: In vivo thrombolysis, rat arteriovenous bypass thrombolysis model; parameters: species or system SD rats; conditions: 1 μmol/kg, after 1 h, n = 10
Procedure: SD rats (male, 220 to 230 g) were anaesthetized by intraperitoneal injection of a urethane solution at a dosage of 1200 mg/kg. The anaesthetized rats were fixed in a supine position, and the right common carotid artery was dissected, clamped at the proximal end with an arterial clip, and penetrated with a suture at the proximal and distal ends, respectively. The suture at the distal end is clipped tightly by a hemostatic clamp at the fur. Cannulation was performed at the distal end, the arterial clamp was removed, and about 1 ml arterial blood was discharged into a 1 ml eppendorf. 0.1 ml rat arterial blood was injected into a vertically fixed glass tube (15 mm in length, with an inner diameter of 2.5 mm and an outer diameter of 5.0 mm, sealed with a rubber stopper at the bottom), into which was immediately inserted a thrombus immobilization screw made of stainless steel. […] 15 min after the blood was coagulated, the rubber stopper at the bottom of the glass tube was removed, the stem of the thrombus immobilization screw was nipped by forceps, and the thrombus-wrapped thrombus immobilization screw was carefully taken out of the glass tube and then accurately weighed.
A bypass cannula was composed of 3 segments. The middle segment was a polyethylene tubing having a length of 60.0 mm and an inner diameter of 3.5 mm. The segments on both ends were similar polyethylene tubes having a length of 100.0 mm, an inner diameter of 1.0 mm and an outer diameter of 2.0 mm, one end of which was pulled to form a tip, with an outer diameter of 1.0 mm, that could be inserted into the rat carotid artery or vein, and the other end of which was sheathed by a polyethylene tube having a length of 7.0 mm and an outer diameter of 3.5 mm (thickened in order to be inserted into the polyethylene tubing of the middle segment). The inner wall of the 3-segment cannula was entirely silylated (with 1% silicone oil in ethyl ether). The thrombus-wrapped thrombus immobilization screw was placed into the polyethylene tubing of the middle segment, and both ends of the tubing sheathed the thickened ends of the two polyethylene tubes. The cannula was filled with a heparin solution in normal saline (50 IU/kg) through the tip end by using an injector and was ready for use. The trachea of the anaesthetized rat was then dissected and tracheal cannulation was performed. The left external carotid vein of the rat was dissected, and penetrated with a suture at the proximal and distal ends, respectively. An uneven open incision was careful made on the exposed left external carotid vein, and the tip of the bypass cannula prepared as described above was inserted into the proximal end of the open incision in the left external carotid vein, away from the stem of the thrombus immobilization screw in the middle segment of the bypass cannula (which accommodated the accurately weighed thrombus immobilization screw). A precise amount of heparin in saline (50 IU/kg) was injected through the tip at the other end by using an injector. At this moment, without removing the injector from the ethylene tube, the tubing between the injector and the polyethylene tube was clamped with forceps. The blood flow was stopped by clamping the proximal end of the right common carotid artery with an arterial clip, and an uneven open incision was cut carefully across the common carotid artery near the clip. The injector was pulled out of the tip of the polyethylene tube, and the tip of the polyethylene tube was then inserted into the proximal end of the artery open incision. Both ends of the bypass cannula were fixed to the artery or vein with #4 sutures. […]

[6] = test system: thrombus from rat arterial blood; assay: In vitro thrombolysis; parameters: species or system SD rats; conditions: 100 nM, 2 h at 37° C., n = 6
Procedure: SD rats (male, 350 to 400 g) were anaesthetized by intraperitoneal injection of a urethane solution at a dosage of 1200 mg/kg. The anaesthetized rats were fixed in a supine position, and the right common carotid artery was dissected, clamped at the proximal end with an arterial clip, and penetrated with a suture at the proximal and distal ends, respectively. The suture at the distal end is clipped tightly by a hemostatic clamp at the fur. Cannulation was performed at the distal end, the artery clamp was removed, and the total arterial blood was discharged into a 50 ml container previously treated with silicone oil. […] rat arterial blood was injected into a vertically fixed glass tube (20 mm in length, with an inner diameter of 4 mm and an outer diameter of 5 mm, sealed with a rubber stopper at the bottom), into which was immediately inserted a thrombus immobilization screw made of stainless steel. […] 40 min after the blood was coagulated, the rubber stopper at the bottom of the glass tube was removed, the stem of the thrombus immobilization screw was nipped by forceps, and the thrombus-wrapped thrombus immobilization screw was carefully taken out from the glass tube. The screw was then suspended and dipped in triple-distilled water to remove excessive blood, and accurately weighed after 1 h. The thrombus was suspended in 8 mL of normal saline, or a solution of compounds Ia-Il in normal saline (at a concentration of 100 nM), or a solution of ARPAK (SEQ. ID NO. 4), GRPAK (SEQ. ID NO. 5), RPAK (SEQ. ID NO. 3) or PAK in normal saline (at a concentration of 100 nM), or a solution of urokinase in normal saline (100 IU/mL), then shaked at 37° C. in a thermostatic shaker (63 r/min), and removed after 2 h and accurately weighed to determine the weight of the thrombus.

Molecule	Percentage of infarction volume (Mean ± SD %) [1]	Weight reduction in thrombus (Mean ± SD mg) [5] [mg]	Weight reduction in thrombus (Mean ± SD mg) [6] [mg]	Wet weight of thrombus (Mean ± SD mg) ([4]; 10 μmol/kg by gavage) [mg]	other results
CC1(C)N([O])C(c2ccc(OCC(=O)O)cc2)=[N+]([O-])C1(C)C [TMMZ, 1,3-dioxo-2-(4′-oxyacetoxy-phenyl)-4,4,5,5-tetramethylimidazoline, reference compound]	22.96 ± 2.43 ^a %	–	–	–	Neural function scores (Mean ± SD) ([2]; n = 10): 2.83 ± 0.75 ^a; Percentage of inhibition (Mean ± SD %) of vasodilatation induced by acetylcholine [3]: 15.47%
CC(=O)Oc1ccccc1C(=O)O [aspirin, reference compound]	–	–	–	–	Wet weight of thrombus (Mean ± SD mg) ([4]; aspirin 33 mg/kg by gavage): 12.85 ± 2.49 ^a mg
Ala-Arg-Pro-Ala-Lys (ARPAK) [ARPAK (SEQ. ID NO. 4), thrombolytic peptide, component control, reference compound]	22.00 ± 2.20 ^a %	15.20 ± 2.55	26.35 ± 3.10	–	–
Arg-Gly-Asp-Phe (RGDF) [RGDF (SEQ. ID NO. 13), targeting peptide, reference compound]	–	–	–	19.55 ± 2.21	–
Arg-Gly-Asp-Ser (RGDS) [RGDS (SEQ. ID NO. 11), targeting peptide, reference compound]	–	–	–	20.02 ± 2.35	–
Arg-Gly-Asp-Val (RGDV) [RGDV (SEQ. ID NO. 12), targeting peptide, reference compound]	–	–	–	21.26 ± 2.07	–
Arg-Pro-Ala-Lys (RPAK) [RPAK (SEQ. ID NO. 3), thrombolytic peptide, component control, reference compound]	22.11 ± 2.25 ^a %	15.67 ± 2.61	26.01 ± 3.11	–	Neural function scores (Mean ± SD) ([2]; n = 10): did not exhibit anti-stroke activity; Neural function scores (Mean ± SD) ([2]; n = 10, listed as RPAKI (SEQ. ID NO. 3)): 2.38 ± 0.97 ^a
Gly-Arg-Pro-Ala-Lys (GRPAK) [GRPAK (SEQ. ID NO. 5), thrombolytic peptide, component control, reference compound]	21.77 ± 2.46 ^a %	15.47 ± 2.61	15.47 ± 2.61	–	–
Pro-Ala-Lys [PAK, reference compound]	22.07 ± 2.40 ^a %	15.00 ± 2.61	26.67 ± 3.20	–	–
